Type in all cases: cell-based
For one experiment, the target named is T1, 1b22-GABA (Rattus norvegicus, UniProt P18508+P62813+P63138).
T1 construct: expressed in transfected cells; host or cells: Xenopus oocytes (cRNA injection, 1:1:1)
Kind of experiment: Off-target, oocytes, GABAA. As to conditions: 1 µM compound; 100 µM GABA. As for the experimental part:
(§1) Analysis of Off-target Actions
(§2) Compound (S)-(-)-2i was tested at 1 µM for actions at glycine-activated GluN1/GluN3A (human GluN1-F484A,T518L/GluN3A referred to a GluN1-FA,TL/GluN3A) and rat GluN1-4a/GluN3B in the presence of 0.5 µM CGP-78608. cRNA injection ratios for GluN1/GluN3 were 1:2. Compound (S)-(-)- 2i was also tested for actions at AMPA (rat GluA1, rat GluA2, human GluA3-L531Y), kainate (rat GluK2), nicotinic acetylcholine (rat α7 and α4β2, cRNA ratio 1:1), GABAA (rat α1β2γ2S, cRNA ratio 1:1:1), GABAC (rat ρ1), glycine (rat α1), and purinergic (human P2X) receptors expressed in Xenopus oocytes. cRNA encoding the receptor subunits was synthesized from linear template cDNA using the mMessage mMachine kit (Ambion). Oocytes were injected with 1-5 ng cRNA in a 50 nL volume and incubated in Barth's solution at 15°C for 2-5 days prior to recording. GluK2-expressing oocyte were incubated in 1 mg/ml (10 µM) concanavalin-A for 10 min prior to recording. The cDNAs encoding GABAC and glycine subunits were provided by Dr. D. Weiss (University of Texas Health Science Center at San Antonio). cDNAs encoding nicotinic acetylcholine receptor subunits were provided by Drs. […]
(§3) GABA. […] Responses in presence of test compound were expressed as a percent of control. […]

A further experiment concerns the target GluN1-4a/GluN3B (Rattus norvegicus, UniProt P35439+Q8VHN2). Nature of the experiment: Off-target, oocytes, GluN1-4a/GluN3B. To be noted: 1 µM compound; 100 µM glycine. The protocol: as §1, §2, §3
The next experiment concerns the target T2, -GABAC (Rattus norvegicus, UniProt P50572).
T2 construct: expressed in transfected cells; host or cells: Xenopus oocytes (cRNA injection)
Kind of experiment: Off-target, oocytes, GABAC. To be noted: 1 µM compound; 100 µM GABA. As for the experimental part: as §1, §2, §3

GluN1-4a/GluN3B, sequence (Q8VHN2 25-1002, other chains not shown): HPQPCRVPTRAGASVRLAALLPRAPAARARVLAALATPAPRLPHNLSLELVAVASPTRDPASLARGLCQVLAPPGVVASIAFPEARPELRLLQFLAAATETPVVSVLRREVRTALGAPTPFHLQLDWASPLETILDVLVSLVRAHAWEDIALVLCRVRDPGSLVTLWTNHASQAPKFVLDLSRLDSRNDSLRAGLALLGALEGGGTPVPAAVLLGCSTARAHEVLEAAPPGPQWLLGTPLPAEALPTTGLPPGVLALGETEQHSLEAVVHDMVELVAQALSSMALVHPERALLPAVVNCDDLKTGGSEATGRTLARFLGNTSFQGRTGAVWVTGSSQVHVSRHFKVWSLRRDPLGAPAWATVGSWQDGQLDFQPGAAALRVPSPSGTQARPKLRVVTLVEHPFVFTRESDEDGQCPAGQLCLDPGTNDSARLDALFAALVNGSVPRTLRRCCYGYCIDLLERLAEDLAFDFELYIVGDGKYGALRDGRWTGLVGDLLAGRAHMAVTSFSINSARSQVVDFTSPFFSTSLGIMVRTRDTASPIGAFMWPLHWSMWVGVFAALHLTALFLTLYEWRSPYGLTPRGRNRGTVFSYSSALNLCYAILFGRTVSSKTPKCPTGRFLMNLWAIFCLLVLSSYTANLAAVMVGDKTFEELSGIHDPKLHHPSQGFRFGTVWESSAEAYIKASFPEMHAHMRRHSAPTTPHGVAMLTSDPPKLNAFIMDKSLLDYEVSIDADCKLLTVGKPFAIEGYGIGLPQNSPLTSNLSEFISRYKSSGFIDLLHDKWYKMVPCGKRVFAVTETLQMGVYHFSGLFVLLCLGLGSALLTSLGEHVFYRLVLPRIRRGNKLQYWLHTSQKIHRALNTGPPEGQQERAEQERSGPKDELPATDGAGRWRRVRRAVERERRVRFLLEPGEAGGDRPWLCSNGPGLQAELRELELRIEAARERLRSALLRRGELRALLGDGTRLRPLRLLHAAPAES
T1 sequence (P62813 28-455): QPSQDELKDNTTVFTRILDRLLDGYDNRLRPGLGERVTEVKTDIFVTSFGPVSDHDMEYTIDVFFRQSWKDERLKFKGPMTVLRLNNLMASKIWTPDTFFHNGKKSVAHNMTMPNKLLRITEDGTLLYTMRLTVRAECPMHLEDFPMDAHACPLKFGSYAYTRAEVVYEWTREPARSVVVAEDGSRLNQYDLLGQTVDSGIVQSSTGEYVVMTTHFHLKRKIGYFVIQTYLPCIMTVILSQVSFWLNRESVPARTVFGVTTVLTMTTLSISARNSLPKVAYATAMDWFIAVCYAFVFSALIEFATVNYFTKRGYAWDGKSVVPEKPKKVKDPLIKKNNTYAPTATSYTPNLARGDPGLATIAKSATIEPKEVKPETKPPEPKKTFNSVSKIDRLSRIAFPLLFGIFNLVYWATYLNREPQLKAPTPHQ
T1 sequence (P63138 25-474 limits assumed): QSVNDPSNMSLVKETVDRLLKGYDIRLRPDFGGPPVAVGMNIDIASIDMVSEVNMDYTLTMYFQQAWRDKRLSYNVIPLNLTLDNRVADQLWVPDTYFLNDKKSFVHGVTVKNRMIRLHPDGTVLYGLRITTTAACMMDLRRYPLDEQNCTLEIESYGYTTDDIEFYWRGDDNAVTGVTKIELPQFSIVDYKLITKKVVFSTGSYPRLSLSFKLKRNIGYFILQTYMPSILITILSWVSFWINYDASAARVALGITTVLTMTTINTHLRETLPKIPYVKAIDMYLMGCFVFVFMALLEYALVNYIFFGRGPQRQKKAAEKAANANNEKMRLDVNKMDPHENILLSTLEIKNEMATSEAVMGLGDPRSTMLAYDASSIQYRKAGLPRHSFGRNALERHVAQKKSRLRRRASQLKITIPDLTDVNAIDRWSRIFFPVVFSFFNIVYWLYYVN
T1 sequence (P18508 39-466): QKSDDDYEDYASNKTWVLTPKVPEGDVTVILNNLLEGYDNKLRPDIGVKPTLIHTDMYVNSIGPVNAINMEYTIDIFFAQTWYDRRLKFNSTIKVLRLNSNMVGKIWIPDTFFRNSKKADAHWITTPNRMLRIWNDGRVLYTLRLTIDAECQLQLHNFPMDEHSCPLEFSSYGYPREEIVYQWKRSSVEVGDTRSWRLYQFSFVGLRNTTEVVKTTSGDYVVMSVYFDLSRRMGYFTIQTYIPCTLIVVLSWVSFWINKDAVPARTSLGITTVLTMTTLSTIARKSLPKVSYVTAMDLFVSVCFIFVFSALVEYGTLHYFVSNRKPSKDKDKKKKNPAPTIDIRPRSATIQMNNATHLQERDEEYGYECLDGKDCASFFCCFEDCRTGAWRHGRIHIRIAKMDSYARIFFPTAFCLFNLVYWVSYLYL
T2 sequence (P50572 22-480): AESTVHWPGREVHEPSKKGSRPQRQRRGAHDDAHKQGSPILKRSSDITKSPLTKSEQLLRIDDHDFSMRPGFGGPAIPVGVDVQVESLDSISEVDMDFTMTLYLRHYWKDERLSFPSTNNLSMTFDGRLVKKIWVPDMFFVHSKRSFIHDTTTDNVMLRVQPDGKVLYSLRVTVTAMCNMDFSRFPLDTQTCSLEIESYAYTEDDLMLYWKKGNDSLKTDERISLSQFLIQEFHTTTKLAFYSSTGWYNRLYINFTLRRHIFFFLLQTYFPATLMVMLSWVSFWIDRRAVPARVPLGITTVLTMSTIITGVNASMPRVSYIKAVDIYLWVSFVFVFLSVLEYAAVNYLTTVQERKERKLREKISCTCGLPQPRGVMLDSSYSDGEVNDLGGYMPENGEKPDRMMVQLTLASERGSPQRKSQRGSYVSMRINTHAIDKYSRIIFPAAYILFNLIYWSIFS

`O=C(O)CC(F)(F)C(=O)N1N=C(c2c(-c3ccc(Cl)cc3)c3ccccc3[nH]c2=O)C[C@H]1c1ccc(Cl)cc1` [(S)-(−)-2i]: at 1b22-GABA, the “% control 1b22-GABA” value worked out at 85 ± 2.0%. For the same compound, the “% control GluN1-4a/GluN3B” value on GluN1-4a/GluN3B is reported as 97 ± 1.0%. Besides, the “% control -GABAC” value at -GABAC came to 96 ± 1.2%.

The values above are taken from article PMC10485906, “Development of a Dihydroquinoline–Pyrazoline GluN2C/2D-Selective Negative Allosteric Modulator of the N-Methyl-D-aspartate Receptor” (ACS Chemical Neuroscience, 2023).
